In PMC5218480 (PLoS ONE, 2017):

Tested on: MV-4-11 cells
Assay: Gene expression microarray analysis (Affymetrix PrimeView) and GSEA
Format: cell-based, human
Set-up: RFU PODN (11730768_x_at) / Fold change /veh PODN (11730768_x_at) / RFU LINC00158 (11744669_a_at) / Fold change /veh LINC00158 (11744669_a_at) / RFU DUSP10 (11751237_a_at) / Fold change /veh DUSP10 (11751237_a_at) / RFU ID3 (11757404_x_at) / Fold change /veh ID3 (11757404_x_at) / RFU PLEKHG5 (11737974_s_at) / Fold change /veh PLEKHG5 (11737974_s_at) / RFU LRRC4B (11730491_at) / Fold change /veh LRRC4B (11730491_at) / RFU GIMAP4 (11747438_a_at) / Fold change /veh GIMAP4 (11747438_a_at) / RFU KRT8 (11758183_x_at) / Fold change /veh KRT8 (11758183_x_at) / RFU CNN1 (11734310_a_at) / Fold change /veh CNN1 (11734310_a_at) / RFU VPS37D (11726825_at) / Fold change /veh VPS37D (11726825_at) / RFU C10orf10 (11716522_x_at) / Fold change /veh C10orf10 (11716522_x_at) / RFU KIR2DL2 /// KIR2DL4 /// KIR2DL5A /// KIR2DL5B /// KIR2DS1 /// KIR2DS2 /// KIR2DS3 /// KIR2DS4 /// KIR3DL3 /// KIR3DL3 /// KIR3DS1 (11738374_at) / Fold change /veh KIR2DL2 /// KIR2DL4 /// KIR2DL5A /// KIR2DL5B /// KIR2DS1 /// KIR2DS2 /// KIR2DS3 /// KIR2DS4 /// KIR3DL3 /// KIR3DL3 /// KIR3DS1 (11738374_at) / RFU C1QL1 (11718748_at) / Fold change /veh C1QL1 (11718748_at) / RFU TMPRSS4 (11747572_a_at) / Fold change /veh TMPRSS4 (11747572_a_at) / RFU HAMP (11756126_x_at) / Fold change /veh HAMP (11756126_x_at) / RFU RNFT2 (11725882_a_at) / Fold change /veh RNFT2 (11725882_a_at) / RFU NR4A2 (11747474_a_at) / Fold change /veh NR4A2 (11747474_a_at) / RFU ABCC12 (11746883_a_at) / Fold change /veh ABCC12 (11746883_a_at) / RFU TMEM136 (11760407_x_at) / Fold change /veh TMEM136 (11760407_x_at) / RFU CLDN22 /// WWC2 (11732394_at) / Fold change /veh CLDN22 /// WWC2 (11732394_at) / RFU HLA-DPB1 (11760878_x_at) / Fold change /veh HLA-DPB1 (11760878_x_at) / RFU SPINT1 (11716480_a_at) / Fold change /veh SPINT1 (11716480_a_at) / RFU GAP43 (11754022_s_at) / Fold change /veh GAP43 (11754022_s_at) / RFU A4GNT (11735810_at) / Fold change /veh A4GNT (11735810_at) / RFU PRB3 (11715151_x_at) / Fold change /veh PRB3 (11715151_x_at) / RFU TUBB4B (11761932_at) / Fold change /veh TUBB4B (11761932_at) / RFU CAPN14 (11732068_a_at) / Fold change /veh CAPN14 (11732068_a_at) / RFU TMCC2 (11721928_a_at) / Fold change /veh TMCC2 (11721928_a_at) / RFU IRGQ (11745062_a_at) / Fold change /veh IRGQ (11745062_a_at) / RFU FAM174B (11720279_a_at) / Fold change /veh FAM174B (11720279_a_at) / RFU TMPRSS4 (11748680_a_at) / Fold change /veh TMPRSS4 (11748680_a_at) / RFU FAM212B (11763350_a_at) / Fold change /veh FAM212B (11763350_a_at) / RFU PLEKHG5 (11743358_a_at) / Fold change /veh PLEKHG5 (11743358_a_at) / RFU ZSCAN30 (11745921_a_at) / Fold change /veh ZSCAN30 (11745921_a_at) / RFU CMKLR1 (11741424_a_at) / Fold change /veh CMKLR1 (11741424_a_at) / RFU LOC101060620 /// MAPK8IP1 (11723275_at) / Fold change /veh LOC101060620 /// MAPK8IP1 (11723275_at) / RFU SPTSSB (11747773_x_at) / Fold change /veh SPTSSB (11747773_x_at) / RFU PRSS12 (11739890_at) / Fold change /veh PRSS12 (11739890_at) / RFU BIN1 (11741810_x_at) / Fold change /veh BIN1 (11741810_x_at) / RFU WNT11 (11732464_a_at) / Fold change /veh WNT11 (11732464_a_at) / RFU C10orf10 (11716521_a_at) / Fold change /veh C10orf10 (11716521_a_at) / RFU C5orf56 (11738089_at) / Fold change /veh C5orf56 (11738089_at) / RFU CYB561 (11721691_x_at) / Fold change /veh CYB561 (11721691_x_at) / RFU ANKRD19P (11752326_a_at) / Fold change /veh ANKRD19P (11752326_a_at) / RFU OR2T12 /// OR2T33 /// OR2T8 (11738714_s_at) / Fold change /veh OR2T12 /// OR2T33 /// OR2T8 (11738714_s_at) / RFU VCAN (11748164_a_at) / Fold change /veh VCAN (11748164_a_at) / RFU JSRP1 (11732532_at) / Fold change /veh JSRP1 (11732532_at) / RFU KRTAP10-11 (11738290_x_at) / Fold change /veh KRTAP10-11 (11738290_x_at) / RFU MYO3A (11730013_a_at) / Fold change /veh MYO3A (11730013_a_at) / RFU EBF3 (11725865_a_at) / Fold change /veh EBF3 (11725865_a_at) / RFU CAMK2N1 (11719241_x_at) / Fold change /veh CAMK2N1 (11719241_x_at) / RFU C5orf56 (11738088_a_at) / Fold change /veh C5orf56 (11738088_a_at) / RFU OLFML3 (11715873_a_at) / Fold change /veh OLFML3 (11715873_a_at) / RFU LOC100653217 /// NTM (11731650_a_at) / Fold change /veh LOC100653217 /// NTM (11731650_a_at) / RFU MAPK11 (11762145_a_at) / Fold change /veh MAPK11 (11762145_a_at) / RFU FIZ1 (11724087_x_at) / Fold change /veh FIZ1 (11724087_x_at) / RFU OASL (11726364_x_at) / Fold change /veh OASL (11726364_x_at) / RFU SOX15 (11748057_x_at) / Fold change /veh SOX15 (11748057_x_at) / RFU CD79A (11719716_a_at) / Fold change /veh CD79A (11719716_a_at) / RFU HIST1H1D (11736915_at) / Fold change /veh HIST1H1D (11736915_at) / RFU CASKIN2 (11723855_a_at) / Fold change /veh CASKIN2 (11723855_a_at) / RFU LOC730098 (11760151_x_at) / Fold change /veh LOC730098 (11760151_x_at) / RFU OR4N2 (11742367_at) / Fold change /veh OR4N2 (11742367_at) / RFU PRRT2 (11749266_a_at) / Fold change /veh PRRT2 (11749266_a_at) / RFU SNX32 (11753110_a_at) / Fold change /veh SNX32 (11753110_a_at) / RFU CDHR5 (11726645_a_at) / Fold change /veh CDHR5 (11726645_a_at) / RFU RCAN1 (11760418_a_at) / Fold change /veh RCAN1 (11760418_a_at) / RFU FAM167A (11723789_a_at) / Fold change /veh FAM167A (11723789_a_at) / RFU FAM26E (11764081_at) / Fold change /veh FAM26E (11764081_at) / RFU ISYNA1 (11749810_s_at) / Fold change /veh ISYNA1 (11749810_s_at) / RFU ACY1 (11761880_at) / Fold change /veh ACY1 (11761880_at) / RFU 11764098_at / Fold change /veh 11764098_at / RFU SAMD14 (11745864_x_at) / Fold change /veh SAMD14 (11745864_x_at) / RFU NPB (11741838_a_at) / Fold change /veh NPB (11741838_a_at) / RFU TMPRSS6 (11731388_a_at) / Fold change /veh TMPRSS6 (11731388_a_at) / RFU KRTAP10-2 (11738614_at) / Fold change /veh KRTAP10-2 (11738614_at) / RFU ARHGAP8 /// PRR5-ARHGAP8 (11727945_x_at) / Fold change /veh ARHGAP8 /// PRR5-ARHGAP8 (11727945_x_at) / RFU KRTAP5-7 /// NADSYN1 (11734609_at) / Fold change /veh KRTAP5-7 /// NADSYN1 (11734609_at) / RFU RASL12 (11751679_a_at) / Fold change /veh RASL12 (11751679_a_at) / RFU CDKN2B (11736163_a_at) / Fold change /veh CDKN2B (11736163_a_at) / RFU PRF1 (11729649_at) / Fold change /veh PRF1 (11729649_at) / RFU, ZNF638 /// ZNF638-IT1 / Fold change vs veh, ZNF638 /// ZNF638-IT1 / RFU, PANK3 / Fold change vs veh, PANK3 / RFU, SH3YL1 / Fold change vs veh, SH3YL1 / RFU, ZEB2 / Fold change vs veh, ZEB2 / RFU, NRIP1 / Fold change vs veh, NRIP1 / RFU, PTTG1IP / Fold change vs veh, PTTG1IP / RFU, CAPN2 / Fold change vs veh, CAPN2 / RFU, MED14 / Fold change vs veh, MED14 / RFU, SNORA58 / Fold change vs veh, SNORA58 / RFU, C1orf63 / Fold change vs veh, C1orf63 / RFU, LRRFIP1 / Fold change vs veh, LRRFIP1 / RFU, NDUFAF7 / Fold change vs veh, NDUFAF7 / RFU, SLC12A2 / Fold change vs veh, SLC12A2 / RFU, IBTK / Fold change vs veh, IBTK / RFU, ESF1 / Fold change vs veh, ESF1 / Fold change vs veh, TMEM50B / RFU, TAOK1 / Fold change vs veh, TAOK1 / RFU, ACBD3 / Fold change vs veh, ACBD3 / RFU, TMA16 / Fold change vs veh, TMA16 / RFU, RWDD3 / Fold change vs veh, RWDD3 / RFU, BCAT1 / Fold change vs veh, BCAT1 / RFU, EDEM3 / Fold change vs veh, EDEM3 / RFU, TMEM33 / Fold change vs veh, TMEM33 / RFU, WDR75 / Fold change vs veh, WDR75 / RFU, AHCTF1 / Fold change vs veh, AHCTF1 / RFU, TFRC / Fold change vs veh, TFRC / RFU, ZDHHC17 / Fold change vs veh, ZDHHC17 / RFU, NOM1 / Fold change vs veh, NOM1 / RFU, ARL8B / Fold change vs veh, ARL8B / RFU, ZBTB11 / Fold change vs veh, ZBTB11 / RFU, TAMM41 / Fold change vs veh, TAMM41 / RFU, KIAA1704 /// LOC100996395 / Fold change vs veh, KIAA1704 /// LOC100996395 / RFU, ING1 / Fold change vs veh, ING1 / RFU, TRMT61B / Fold change vs veh, TRMT61B / RFU, FUBP3 / Fold change vs veh, FUBP3 / RFU, TP53 / Fold change vs veh, TP53 / RFU, TNKS2 / Fold change vs veh, TNKS2 / RFU, ZFP14 / Fold change vs veh, ZFP14 / RFU, ACTR2 / Fold change vs veh, ACTR2 / RFU, PPP3R1 / Fold change vs veh, PPP3R1 / RFU, PIK3R1 / Fold change vs veh, PIK3R1 / RFU, HNRNPA1 / Fold change vs veh, HNRNPA1 / RFU, RNF170 / Fold change vs veh, RNF170 / RFU, ZNF28 / Fold change vs veh, ZNF28 / RFU, RNGTT / Fold change vs veh, RNGTT / RFU, OGT / Fold change vs veh, OGT / RFU, BRD1 / Fold change vs veh, BRD1 / RFU, MARS / Fold change vs veh, MARS / RFU, ZNF655 / Fold change vs veh, ZNF655 / RFU, FAHD1 / Fold change vs veh, FAHD1 / RFU, BDP1 / Fold change vs veh, BDP1 / RFU, LRRCC1 / Fold change vs veh, LRRCC1 / RFU, ARID1A / Fold change vs veh, ARID1A / RFU, ZNF146 / Fold change vs veh, ZNF146 / RFU, ZNF330 / Fold change vs veh, ZNF330 / RFU, GPN3 / Fold change vs veh, GPN3 / RFU, C9orf123 / Fold change vs veh, C9orf123 / RFU, N4BP2L2 / Fold change vs veh, N4BP2L2 / RFU, ARFIP1 / Fold change vs veh, ARFIP1 / RFU, FAM179B / Fold change vs veh, FAM179B / RFU, BCL10 / Fold change vs veh, BCL10 / RFU, UHRF1BP1L / Fold change vs veh, UHRF1BP1L / RFU, BET1 / Fold change vs veh, BET1 / RFU, CNOT2 / Fold change vs veh, CNOT2 / RFU, ZNF268 / Fold change vs veh, ZNF268 / Fold change vs veh, ZNF507 / RFU, DGCR2 / Fold change vs veh, DGCR2 / RFU, WDSUB1 / Fold change vs veh, WDSUB1 / Fold change vs veh, HSP90B1 /// MIR3652 / RFU, ADSS / Fold change vs veh, ADSS / RFU, GK / Fold change vs veh, GK / RFU, ZNF148 / Fold change vs veh, ZNF148 / RFU, TAF9 / Fold change vs veh, TAF9 / RFU, SLC1A5 / Fold change vs veh, SLC1A5 / RFU, SLMO2 / Fold change vs veh, SLMO2 / RFU, ABCC4 / Fold change vs veh, ABCC4 / RFU, LOC101060439 /// RAP1B / Fold change vs veh, LOC101060439 /// RAP1B / RFU, RFX7 / Fold change vs veh, RFX7 / RFU, GTPBP10 / Fold change vs veh, GTPBP10 / RFU, CNEP1R1 / Fold change vs veh, CNEP1R1 / RFU, BIVM-ERCC5 /// ERCC5 / Fold change vs veh, BIVM-ERCC5 /// ERCC5 / RFU, ILF3 / Fold change vs veh, ILF3 / RFU 11762660_at / Fold change /veh 11762660_at / RFU VCAN (11757783_s_at) / Fold change /veh VCAN (11757783_s_at) / RFU DDX43 (11728927_at) / Fold change /veh DDX43 (11728927_at) / RFU KRT8 (11758188_x_at) / Fold change /veh KRT8 (11758188_x_at) / RFU NKD1 (11759106_at) / Fold change /veh NKD1 (11759106_at) / RFU SRD5A1 (11742802_a_at) / Fold change /veh SRD5A1 (11742802_a_at) / RFU TPSAB1 /// TPSB2 (11721975_s_at) / Fold change /veh TPSAB1 /// TPSB2 (11721975_s_at) / RFU GSTM3 (11746129_a_at) / Fold change /veh GSTM3 (11746129_a_at) / RFU IL23R (11737362_x_at) / Fold change /veh IL23R (11737362_x_at) / RFU TMEM51 (11727254_a_at) / Fold change /veh TMEM51 (11727254_a_at) / RFU PIWIL2 (11732686_x_at) / Fold change /veh PIWIL2 (11732686_x_at) / RFU ORM1 (11744905_x_at) / Fold change /veh ORM1 (11744905_x_at) / RFU CCDC152 (11743942_at) / Fold change /veh CCDC152 (11743942_at) / RFU ECM1 (11717891_a_at) / Fold change /veh ECM1 (11717891_a_at) / RFU IL23R (11748794_a_at) / Fold change /veh IL23R (11748794_a_at) / RFU TNFAIP8L3 (11732012_x_at) / Fold change /veh TNFAIP8L3 (11732012_x_at) / RFU MBOAT4 (11741988_at) / Fold change /veh MBOAT4 (11741988_at) / RFU 11764193_at / Fold change /veh 11764193_at / RFU TMEM53 (11763286_at) / Fold change /veh TMEM53 (11763286_at) / RFU MAGEB2 (11727129_at) / Fold change /veh MAGEB2 (11727129_at) / RFU TMEM200A (11744735_a_at) / Fold change /veh TMEM200A (11744735_a_at) / RFU CCDC152 (11751479_a_at) / Fold change /veh CCDC152 (11751479_a_at) / RFU FAM211A (11726209_a_at) / Fold change /veh FAM211A (11726209_a_at) / RFU RGS16 (11746705_a_at) / Fold change /veh RGS16 (11746705_a_at) / RFU VCAN (11755009_s_at) / Fold change /veh VCAN (11755009_s_at) / RFU RHOB (11743442_s_at) / Fold change /veh RHOB (11743442_s_at) / RFU RGS16 (11720943_a_at) / Fold change /veh RGS16 (11720943_a_at) / RFU RGS16 (11720944_at) / Fold change /veh RGS16 (11720944_at) / RFU, VPS4B / Fold change vs veh, VPS4B / RFU, CREB1 / Fold change vs veh, CREB1 / RFU, DNAJC13 / Fold change vs veh, DNAJC13 / RFU, GNAQ / Fold change vs veh, GNAQ / RFU, CDK5R1 / Fold change vs veh, CDK5R1 / RFU, ZRANB3 / Fold change vs veh, ZRANB3 / RFU, CUL4A / Fold change vs veh, CUL4A / RFU, CCNY / Fold change vs veh, CCNY / RFU, UFL1 / Fold change vs veh, UFL1 / RFU, COG3 / Fold change vs veh, COG3 / RFU, DIAPH2 / Fold change vs veh, DIAPH2 / RFU, SKA2 / Fold change vs veh, SKA2 / RFU, AFF3 / Fold change vs veh, AFF3 / RFU, LMF1 / Fold change vs veh, LMF1 / RFU, IPO11 / Fold change vs veh, IPO11 / RFU, DFFB / Fold change vs veh, DFFB / RFU, FOXP1 / Fold change vs veh, FOXP1 / RFU, CARD8 / Fold change vs veh, CARD8 / RFU, STRN3 / Fold change vs veh, STRN3 / RFU, ADK / Fold change vs veh, ADK / RFU, RASSF2 / Fold change vs veh, RASSF2 / RFU, WIPF1 / Fold change vs veh, WIPF1 / RFU, LARP1B / Fold change vs veh, LARP1B / RFU, RASA1 / Fold change vs veh, RASA1 / RFU, RB1 / Fold change vs veh, RB1 / RFU, PPFIA1 / Fold change vs veh, PPFIA1 / RFU, MAT2A / Fold change vs veh, MAT2A / RFU, CCT5 / Fold change vs veh, CCT5 / RFU, WDR92 / Fold change vs veh, WDR92 / RFU, CUX1 / Fold change vs veh, CUX1 / RFU, TTC7A / Fold change vs veh, TTC7A / RFU, TMEM135 / Fold change vs veh, TMEM135 / RFU, DEPTOR / Fold change vs veh, DEPTOR / RFU, CPM / Fold change vs veh, CPM / RFU, DNAJB6 / Fold change vs veh, DNAJB6 / RFU, CACNA2D3 / Fold change vs veh, CACNA2D3 / RFU, DTX4 / Fold change vs veh, DTX4 / RFU, TFCP2 / Fold change vs veh, TFCP2 / RFU, GMCL1 /// GMCL1P1 / Fold change vs veh, GMCL1 /// GMCL1P1 / RFU, AEBP2 / Fold change vs veh, AEBP2 / RFU, SNHG1 /// SNORD22 /// SNORD25 /// SNORD26 /// SNORD27 /// SNORD28 /// SNORD29 /// SNORD31 / Fold change vs veh, SNHG1 /// SNORD22 /// SNORD25 /// SNORD26 /// SNORD27 /// SNORD28 /// SNORD29 /// SNORD31 / Fold change (Aza/veh), C12orf56 (ProbeSet 11735607_a_at) / Fold change (ACY-1035/veh), C12orf56 (ProbeSet 11735607_a_at) / Fold change (Aza/veh), FGFR1OP (ProbeSet 11751329_s_at) / Fold change (ACY-1035/veh), FGFR1OP (ProbeSet 11751329_s_at) / Fold change (Aza/veh), VPS36 (ProbeSet 11739960_a_at) / Fold change (ACY-1035/veh), VPS36 (ProbeSet 11739960_a_at) / RFU SYPL1 (11715823_x_at) / Fold change /veh SYPL1 (11715823_x_at) / RFU IGFBP7 (11715501_s_at) / Fold change /veh IGFBP7 (11715501_s_at) / RFU REEP3 (11722064_at) / Fold change /veh REEP3 (11722064_at) / RFU IGLL1 (11728026_x_at) / Fold change /veh IGLL1 (11728026_x_at): dose or concentration left out as unconfirmed
Conditions: MV-4-11 cells, 48 hours

Question: How did the “Fold change /veh KRTAP5-7 /// NADSYN1 (11734609_at)” value turn out when `Nc1ccc(-c2cccs2)cc1NC(=O)c1ccc2c(c1)cc(C1CC1)n2CCN1CCOCC1` [ACY-1035] was run?
Answer: 0.96
